Measured values from the NIST ThermoML archive (doi:10.1016/j.jct.2006.06.009).
± gives the expanded uncertainty stated by the source.

Experiments:
[1] = 308.15 K; 101 kPa; Liquid
[2] = xn = mol fraction of the nth substance listed; conditions: 308.15 K, 101 kPa, Liquid

With `ClC(Cl)C(Cl)Cl` [1,1,2,2-tetrachloroethane] the mass density [1] was 1572.4 ± 2.9 kg/m3 and the viscosity [1] was 1.334 ± 0.033 mPa·s.
With `ClC(Cl)C(Cl)Cl` [1,1,2,2-tetrachloroethane] + CNC(C)=O the mass density ([2]; x2 = 0) was 1572.4 ± 2.9 kg/m3 and the viscosity ([2]; x2 = 0) was 1.334 ± 0.033 mPa·s.
In the case of `ClCC(Cl)Cl` [1,1,2-trichloroethane], the mass density [1] is reported as 1416.1 ± 3.2 kg/m3 and the viscosity [1] is reported as 0.903 ± 0.017 mPa·s.
Work on `ClCC(Cl)Cl` [1,1,2-trichloroethane] + CNC(C)=O yielded a mass density ([2]; x2 = 0) of 1416.1 ± 3.2 kg/m3, a viscosity ([2]; x2 = 0) of 0.903 ± 0.017 mPa·s and a mass density ([2]; x2 = 0.0706) of 1390.4 ± 3 kg/m3. For the same molecule, the viscosity ([2]; x2 = 0.0706) was 1.003 ± 0.018 mPa·s, the mass density ([2]; x2 = 0.2356) was 1324.2 ± 2.6 kg/m3 and the viscosity ([2]; x2 = 0.2356) was 1.365 ± 0.022 mPa·s. The mass density ([2]; x2 = 0.3484) was 1276 ± 2.3 kg/m3, the viscosity ([2]; x2 = 0.3484) was 1.771 ± 0.026 mPa·s and the mass density ([2]; x2 = 0.452) was 1229.9 ± 2.1 kg/m3. It also gave a viscosity ([2]; x2 = 0.452) of 2.18 ± 0.03 mPa·s, a mass density ([2]; x2 = 0.5461) of 1186.3 ± 1.9 kg/m3 and a viscosity ([2]; x2 = 0.5461) of 2.537 ± 0.034 mPa·s. For the same molecule, the mass density ([2]; x2 = 0.643) was 1139.1 ± 1.7 kg/m3, the viscosity ([2]; x2 = 0.643) was 2.88 ± 0.038 mPa·s and the mass density ([2]; x2 = 0.7345) was 1092.7 ± 1.6 kg/m3. It also gave a viscosity ([2]; x2 = 0.7345) of 3.105 ± 0.04 mPa·s, a mass density ([2]; x2 = 0.8235) of 1045.8 ± 1.4 kg/m3 and a viscosity ([2]; x2 = 0.8235) of 3.249 ± 0.041 mPa·s. The mass density ([2]; x2 = 0.9497) was 975.3 ± 1.3 kg/m3 and the viscosity ([2]; x2 = 0.9497) was 3.345 ± 0.041 mPa·s.
Molecule `ClCCCl` [1,2-dichloroethane] has a mass density [1] of 1230.8 ± 1.7 kg/m3 and a viscosity [1] of 0.646 ± 0.013 mPa·s.
For `ClCCCl` [1,2-dichloroethane] + CNC(C)=O, the mass density ([2]; x2 = 0) was 1230.8 ± 1.7 kg/m3 and the viscosity ([2]; x2 = 0) was 0.646 ± 0.013 mPa·s.
With `CNC(C)=O` [N-methylacetamide] the mass density [1] was 945.9 ± 1.2 kg/m3 and the viscosity [1] was 3.312 ± 0.04 mPa·s.
For `CNC(C)=O` [N-methylacetamide] + ClC(Cl)=C(Cl)Cl, the mass density ([2]; x1 = 0.0571) was 1573.5 ± 2.3 kg/m3, the viscosity ([2]; x1 = 0.0571) was 0.801 ± 0.014 mPa·s and the mass density ([2]; x1 = 0.2569) was 1463.9 ± 2.1 kg/m3. For the same molecule, the viscosity ([2]; x1 = 0.2569) was 1.541 ± 0.021 mPa·s, the mass density ([2]; x1 = 0.3691) was 1396.5 ± 2 kg/m3 and the viscosity ([2]; x1 = 0.3691) was 1.895 ± 0.024 mPa·s. It also gave a mass density ([2]; x1 = 0.4749) of 1330.8 ± 1.8 kg/m3, a viscosity ([2]; x1 = 0.4749) of 2.195 ± 0.027 mPa·s and a mass density ([2]; x1 = 0.5719) of 1268.3 ± 1.7 kg/m3. It also gave a viscosity ([2]; x1 = 0.5719) of 2.411 ± 0.03 mPa·s, a mass density ([2]; x1 = 0.6637) of 1206.2 ± 1.6 kg/m3 and a viscosity ([2]; x1 = 0.6637) of 2.61 ± 0.032 mPa·s. The mass density ([2]; x1 = 0.7039) was 1178 ± 1.6 kg/m3, the viscosity ([2]; x1 = 0.7039) was 2.696 ± 0.033 mPa·s and the mass density ([2]; x1 = 0.8385) was 1078.2 ± 1.4 kg/m3. For the same molecule, the viscosity ([2]; x1 = 0.8385) was 2.981 ± 0.037 mPa·s, the mass density ([2]; x1 = 0.9666) was 974.6 ± 1.2 kg/m3 and the viscosity ([2]; x1 = 0.9666) was 3.245 ± 0.04 mPa·s. It also gave a mass density ([2]; x1 = 1) of 945.9 ± 1.2 kg/m3 and a viscosity ([2]; x1 = 1) of 3.312 ± 0.04 mPa·s.
`CNC(C)=O` [N-methylacetamide] + ClC(Cl)C(Cl)Cl gave a mass density ([2]; x1 = 0.0621) of 1545.5 ± 2.8 kg/m3, a viscosity ([2]; x1 = 0.0621) of 1.499 ± 0.037 mPa·s and a mass density ([2]; x1 = 0.2627) of 1450.5 ± 2.4 kg/m3. For the same molecule, the viscosity ([2]; x1 = 0.2627) was 2.226 ± 0.053 mPa·s, the mass density ([2]; x1 = 0.3728) was 1393 ± 2.2 kg/m3 and the viscosity ([2]; x1 = 0.3728) was 2.726 ± 0.064 mPa·s. The mass density ([2]; x1 = 0.4796) was 1331.6 ± 2 kg/m3, the viscosity ([2]; x1 = 0.4796) was 3.398 ± 0.078 mPa·s and the mass density ([2]; x1 = 0.5797) was 1268.9 ± 1.9 kg/m3. The viscosity ([2]; x1 = 0.5797) was 3.936 ± 0.09 mPa·s, the mass density ([2]; x1 = 0.6722) was 1206.5 ± 1.7 kg/m3 and the viscosity ([2]; x1 = 0.6722) was 4.291 ± 0.097 mPa·s. For the same molecule, the mass density ([2]; x1 = 0.7594) was 1143.7 ± 1.6 kg/m3, the viscosity ([2]; x1 = 0.7594) was 4.404 ± 0.099 mPa·s and the mass density ([2]; x1 = 0.8413) was 1080.7 ± 1.5 kg/m3. For the same molecule, the viscosity ([2]; x1 = 0.8413) was 4.036 ± 0.091 mPa·s, the mass density ([2]; x1 = 0.9679) was 974.8 ± 1.2 kg/m3 and the viscosity ([2]; x1 = 0.9679) was 3.533 ± 0.08 mPa·s. The mass density ([2]; x1 = 1) was 945.9 ± 1.2 kg/m3 and the viscosity ([2]; x1 = 1) was 3.312 ± 0.075 mPa·s.
Work on `CNC(C)=O` [N-methylacetamide] + ClC=C(Cl)Cl yielded a mass density ([2]; x1 = 0.0514) of 1417.9 ± 2 kg/m3, a viscosity ([2]; x1 = 0.0514) of 0.564 ± 0.013 mPa·s and a mass density ([2]; x1 = 0.2353) of 1340.4 ± 1.9 kg/m3. It also gave a viscosity ([2]; x1 = 0.2353) of 1.015 ± 0.016 mPa·s, a mass density ([2]; x1 = 0.3404) of 1293.3 ± 1.8 kg/m3 and a viscosity ([2]; x1 = 0.3404) of 1.291 ± 0.018 mPa·s. The mass density ([2]; x1 = 0.4437) was 1244.6 ± 1.7 kg/m3, the viscosity ([2]; x1 = 0.4437) was 1.578 ± 0.021 mPa·s and the mass density ([2]; x1 = 0.5419) was 1196.4 ± 1.6 kg/m3. The viscosity ([2]; x1 = 0.5419) was 1.856 ± 0.024 mPa·s, the mass density ([2]; x1 = 0.6357) was 1148.5 ± 1.5 kg/m3 and the viscosity ([2]; x1 = 0.6357) was 2.15 ± 0.027 mPa·s. For the same molecule, the mass density ([2]; x1 = 0.7288) was 1099.4 ± 1.4 kg/m3, the viscosity ([2]; x1 = 0.7288) was 2.45 ± 0.03 mPa·s and the mass density ([2]; x1 = 0.8196) was 1049.9 ± 1.4 kg/m3. It also gave a viscosity ([2]; x1 = 0.8196) of 2.74 ± 0.034 mPa·s, a mass density ([2]; x1 = 0.9692) of 964.4 ± 1.2 kg/m3 and a viscosity ([2]; x1 = 0.9692) of 3.215 ± 0.039 mPa·s. For the same molecule, the mass density ([2]; x1 = 1) was 945.9 ± 1.2 kg/m3 and the viscosity ([2]; x1 = 1) was 3.312 ± 0.04 mPa·s.
`CNC(C)=O` [N-methylacetamide] + ClCC(Cl)Cl gave a mass density ([2]; x1 = 1) of 945.9 ± 1.2 kg/m3 and a viscosity ([2]; x1 = 1) of 3.312 ± 0.04 mPa·s.
In the case of `CNC(C)=O` [N-methylacetamide] + ClCCCl, the mass density ([2]; x1 = 0.063) is reported as 1213.8 ± 1.6 kg/m3, the viscosity ([2]; x1 = 0.063) is reported as 0.705 ± 0.014 mPa·s and the mass density ([2]; x1 = 0.134) is reported as 1194.7 ± 1.6 kg/m3. For the same molecule, the viscosity ([2]; x1 = 0.134) was 0.785 ± 0.014 mPa·s, the mass density ([2]; x1 = 0.2632) was 1159.1 ± 1.5 kg/m3 and the viscosity ([2]; x1 = 0.2632) was 1.024 ± 0.016 mPa·s. For the same molecule, the mass density ([2]; x1 = 0.3875) was 1124.3 ± 1.5 kg/m3, the viscosity ([2]; x1 = 0.3875) was 1.342 ± 0.019 mPa·s and the mass density ([2]; x1 = 0.4442) was 1108.2 ± 1.4 kg/m3. For the same molecule, the viscosity ([2]; x1 = 0.4442) was 1.5 ± 0.02 mPa·s, the mass density ([2]; x1 = 0.5064) was 1090.5 ± 1.4 kg/m3 and the viscosity ([2]; x1 = 0.5064) was 1.694 ± 0.022 mPa·s. For the same molecule, the mass density ([2]; x1 = 0.6863) was 1038.5 ± 1.3 kg/m3, the viscosity ([2]; x1 = 0.6863) was 2.245 ± 0.028 mPa·s and the mass density ([2]; x1 = 0.807) was 1003.1 ± 1.3 kg/m3. The viscosity ([2]; x1 = 0.807) was 2.651 ± 0.033 mPa·s, the mass density ([2]; x1 = 0.931) was 966.5 ± 1.2 kg/m3 and the viscosity ([2]; x1 = 0.931) was 3.083 ± 0.038 mPa·s. The mass density ([2]; x1 = 1) was 945.9 ± 1.2 kg/m3 and the viscosity ([2]; x1 = 1) was 3.312 ± 0.04 mPa·s.
`ClC(Cl)=C(Cl)Cl` [tetrachloroethene] gave a mass density [1] of 1599.2 ± 2.3 kg/m3 and a viscosity [1] of 0.723 ± 0.014 mPa·s.
Molecule `ClC(Cl)=C(Cl)Cl` [tetrachloroethene] + CNC(C)=O has a mass density ([2]; x2 = 0) of 1599.2 ± 2.3 kg/m3 and a viscosity ([2]; x2 = 0) of 0.723 ± 0.014 mPa·s.
`ClC=C(Cl)Cl` [trichloroethene] gave a mass density [1] of 1438.5 ± 2 kg/m3 and a viscosity [1] of 0.46 ± 0.012 mPa·s.
`ClC=C(Cl)Cl` [trichloroethene] + CNC(C)=O gave a mass density ([2]; x2 = 0) of 1438.5 ± 2 kg/m3 and a viscosity ([2]; x2 = 0) of 0.46 ± 0.012 mPa·s.
